Values quoted from earlier work, collected in patent US9005587B2, “Anti-bacterial and mineralizing calcium phosphate compositions” (New York University, priority 2011, dated 2015).

System: bacteria
Conditions: in vitro; Rolla et al. 1975

## F [F−, fluoride]
  F− in solution needed to inhibit adsorption of bacteria on hydroxyapatite: approximately 9,500 ppm
